“Also recorded” adds a separate entry of the source. Where a SMILES comes first, the peptide text is derived from it. Bridges are numbered along the chain shown (N, C = ends). Where no end group is shown, it is not given here. [ ]: non-standard residue; d: D form. The star is where a group is joined. Phenylacetyl(4-Ph) = O=C(Cc1ccc(-c2ccccc2)cc1)*; Acetyl(2-naphthyloxy) = O=C(COc1ccc2ccccc2c1)*; Acetyl(2-naphthyl) = O=C(Cc1ccc2ccccc2c1)*
Legend:
[1] = system: specific receptor sites on BASM or BAE cells; assay: competitive displacement receptor binding assay (Tables IA-IE); design: species or system bovine; settings: statements in words on Tables IA-IE; displacement of [^125I]-rANP(126-150)
Source text: (§1) An assay has been developed, generally in accordance with the disclosure of Schenk, supra, and Scarborough, R.M. et al., J. Biol. Chem. 261:12960-12964 (1986), which evaluates the ability of ANP analogs to compete with a labeled native ANP for binding to cultured BASM and BAE cells. This native ANP, having the amino acid sequence: [drawing 103] was iodinated on the Carboxy-terminal Y residue and is identified as […]. Analogous "competitive displacement" receptor binding assays are considered commonplace in the art for examining specific ligand-receptor interactions.
(§2) Assuming these ANP analogs act at one or more ANP receptor sites, then increased receptor affinity should reflect increased biological potency.

[2] = target: T1, BASM cell-associated receptors (Bos taurus, UniProt P10730); assay: competitive displacement receptor binding assay, BASM cells (Figure 1); design: species or system bovine; settings: 0.5 nM [^125I]-rANP(126-150), increasing concentrations of unlabeled peptide
T1 construct: endogenous in cells; host or cells: cultured BASM cells
T1 sequence (P10730 42-537): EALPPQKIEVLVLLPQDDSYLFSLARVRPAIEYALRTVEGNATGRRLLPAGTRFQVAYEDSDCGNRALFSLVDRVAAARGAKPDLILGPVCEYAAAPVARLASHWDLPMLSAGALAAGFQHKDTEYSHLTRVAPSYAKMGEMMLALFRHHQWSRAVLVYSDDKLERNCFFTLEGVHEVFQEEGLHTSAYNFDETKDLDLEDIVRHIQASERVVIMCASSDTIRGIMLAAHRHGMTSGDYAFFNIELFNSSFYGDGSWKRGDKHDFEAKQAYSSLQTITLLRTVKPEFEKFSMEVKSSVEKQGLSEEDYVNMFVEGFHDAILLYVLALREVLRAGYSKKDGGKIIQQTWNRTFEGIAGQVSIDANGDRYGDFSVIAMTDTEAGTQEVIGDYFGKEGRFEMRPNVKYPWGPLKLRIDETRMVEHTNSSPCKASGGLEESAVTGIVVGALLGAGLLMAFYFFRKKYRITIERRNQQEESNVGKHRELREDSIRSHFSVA
Source text: as §1, §2

[3] = system: anesthetized rats; assay: diuresis in anesthetized rats; format: in vivo; settings: compared with baseline, Figure 2
Experimental: In one set of examples, cannulae were placed in the left and right ureters and femoral vein of anesthetized rats and urine was collected from the ureters. Analog peptides were administered via the femoral vein. Prior to infusing the analog peptides, saline was infused for 30 minutes, urine was collected for 6 five minutes baseline periods and urine volume was determined gravimetrically. Following these baseline collection periods, various analog peptides were infused for 30 or 60 minutes and urine volume was measured in five minute periods during infusion and for 60 minutes following infusion (at which time rats were returned to saline). Data was examined by averaging urine flow rates for six five- minute baseline control periods immediately preceding infusion, and comparing values during and after administration of peptides with the "baseline" control values. Responses to peptides are thus evaluated and plotted as the percent of baseline control responses. Specific examples are shown in Figures 2A-H. The error bars at the beginning of the graphs represent baseline values ± standard deviations. Responses to peptides that are substantially above baseline ± SD can thus be interpreted as being statistically significant increases.

[4] = system: pentobarbital anesthetized dogs; assay: diuresis and natriuresis in anesthetized dogs; format: in vivo; settings: vs saline controls
Experimental: In these examples, cannulae were placed in the left and right ureters and femoral vein of anesthetized dogs and urine was collected from the ureters. Analog peptides were administered via the femoral vein. Prior to infusing analog peptides, saline was infused for 30 minutes and urine was then collected for three ten minute collection periods. Urine volume was determined gravimetrically and urine sodium was determined photometrically.
Following these three baseline collection periods, the selected analog peptides were infused for 60 minutes and urinary flow was measured for an additional 60 minutes following infusion. During infusion (60 minutes) and recovery (60 minutes), ten minute collection periods were obtained. Control animals which received only saline were studied in parallel.

[5] = infused at 3 µg/kg/minute for 60 minutes
[6] = infused at 1 µg/kg/minute for 60 minutes

Row | Compound | receptor binding affinity (Ki(app)) [1] | other results
1 | CC[C@H](C)[C@H](NC(=O)[C@H](CCCNC(=N)N)NC(=O)CNC(=O)CNC(=O)Cc1ccc2ccccc2c1)C(=O)N[C@@H](CC(=O)O)C(=O)N[C@@H](CCCNC(=N)N)C(=O)N[C@H](C(N)=O)C(C)C [AP333, [2-Napthylacetyl]-G-G-R-I-D-R-V-NH2] ({Acetyl(2-naphthyl)}-GGRIDRV-NH2) | greatly diminished activity | –
2 | AFGGRIDRIGA-NH2 [AP101, A-F-G-G-R-I-D-R-I-G-A-NH2] | substantial Ki(app)s | [^125I]-rANP(126-150) binding to BASM cell-associated receptors [2]: effectively prevent; urine flow rate (urine volume) ([3]; infused at 5 µg/min via femoral vein): significantly increased; urinary sodium excretion [4, 5]: significantly increased; urine flow rate (urine volume) [4, 5]: significantly increased
3 | CC[C@H](C)[C@H](NC(=O)[C@H](CCCNC(=N)N)NC(=O)[C@H](CC(=O)O)NC(=O)[C@@H](NC(=O)[C@H](CCCNC(=N)N)NC(=O)CNC(=O)CNC(=O)Cc1ccc2ccccc2c1)[C@@H](C)CC)C(N)=O [AP314, [2-Napthylacetyl]-G-G-R-I-D-R-I-NH2] ({Acetyl(2-naphthyl)}-GGRIDRI-NH2) | high binding affinity; also recorded: substantial Ki(app)s | urinary sodium excretion [4, 6]: significantly increased; urine flow rate (urine volume) [4, 6]: significantly increased
4 | CC[C@H](C)[C@H](NC(=O)[C@H](CCCNC(=N)N)NC(=O)CNC(=O)CNC(=O)[C@H](Cc1ccccc1)NC(=O)[C@H](C)N)C(=O)N[C@@H](CC(=O)O)C(=O)N[C@H](CCCNC(=N)N)C(=O)N[C@H](C(=O)NCC(=O)N[C@@H](C)C(N)=O)[C@@H](C)CC [AP304, A-F-G-G-R-I-D-[D-R]-I-G-A-NH2] (H-AFGGRID[dR]IGA-NH2) | inactive | –
5 | CC[C@H](C)[C@H](NC(=O)[C@H](CCCNC(=N)N)NC(=O)[C@H](CC(=O)O)NC(=O)[C@@H](NC(=O)[C@H](CCCNC(=N)N)NC(=O)CNC(=O)[C@@H](C)NC(=O)COc1ccc2ccccc2c1)[C@@H](C)CC)C(N)=O [AP322, [2-Napthoxyacetyl]-[D-A]-G-R-I-D-R-I-NH2] ({Acetyl(2-naphthyloxy)}-[dA]GRIDRI-NH2) | greatly diminished activity | –
6 | CC[C@H](C)[C@H](NC(=O)[C@H](CCCNC(=N)N)NC(=O)[C@H](CC(=O)O)NC(=O)[C@@H](NC(=O)[C@H](CCCNC(=N)N)NC(=O)CNC(=O)CNC(=O)Cc1ccc(-c2ccccc2)cc1)[C@@H](C)CC)C(N)=O [AP317, [4-Biphenylacetyl]-G-G-R-I-D-R-I-NH2] ({Phenylacetyl(4-Ph)}-GGRIDRI-NH2) | greatly diminished activity | –
7 | CC[C@H](C)[C@H](NC(=O)[C@H](CCCNC(=N)N)NC(=O)[C@H](CC(=O)O)NC(=O)[C@@H](NC(=O)[C@H](CCCNC(=N)N)NC(=O)CNC(=O)CNC(=O)Cc1ccc2ccccc2c1)[C@@H](C)CC)C(=O)NCC(=O)N[C@@H](C)C(N)=O [AP306, [2-Napthylacetyl]-G-G-R-I-D-R-I-G-A-NH2] ({Acetyl(2-naphthyl)}-GGRIDRIGA-NH2) | high binding affinity; also recorded: substantial Ki(app)s | urinary sodium excretion [4, 5]: significantly increased; urine flow rate (urine volume) [4, 5]: significantly increased
8 | RIDRIG-NH2 [AP125, R-I-D-R-I-G-NH2] | inactive | –
9 | (desNH2-F)-G-G-R-I-D-R-I-NH2 [AP132] | – | [^125I]-rANP(126-150) binding to BASM cell-associated receptors [2]: effectively prevent
10 | CC[C@H](C)[C@@H]1NC(=O)[C@H](CCCNC(=N)N)NC(=O)[C@H](CC(=O)O)NC(=O)[C@H]([C@@H](C)CC)NC(=O)[C@H](CCCNC(=N)N)NC(=O)CNC(=O)[C@@H](NC(=O)[C@H](CO)NC(=O)[C@H](CO)NC(=O)[C@@H](N)CCCNC(=N)N)CSSC[C@@H](C(=O)N[C@@H](CC(N)=O)C(=O)N[C@@H](CO)C(=O)N[C@@H](Cc2ccccc2)C(=O)N[C@@H](CCCNC(=N)N)C(=O)N[C@@H](Cc2ccc(O)cc2)C(=O)O)NC(=O)CNC(=O)[C@H](CC(C)C)NC(=O)CNC(=O)[C@H](CO)NC(=O)[C@H](CCC(N)=O)NC(=O)[C@H](C)NC(=O)CNC1=O [AP24, R-S-S-C-G-R-I-D-R-I-G-A-O-S-G-L-G-C-N-S-F-R-Y] (H-RSSCGRIDRIGAQSGLGCNSFRY-OH; disulfide 4-18) | weaker apparent affinity | –
11 | CC[C@H](C)[C@H](NC(=O)[C@H](CCCNC(=N)N)NC(=O)[C@H](CC(=O)O)NC(=O)[C@@H](NC(=O)[C@@H](CCCNC(=N)N)NC(=O)CNC(=O)CNC(=O)[C@H](Cc1ccccc1)NC(=O)[C@H](C)N)[C@@H](C)CC)C(=O)NCC(=O)N[C@@H](C)C(N)=O [AP301, A-F-G-G-[D-R]-I-D-R-I-G-A-NH2] (H-AFGG[dR]IDRIGA-NH2) | inactive | –
12 | CC[C@H](C)[C@H](NC(=O)[C@H](CCCNC(=N)N)NC(=O)[C@@H](CC(=O)O)NC(=O)[C@@H](NC(=O)[C@H](CCCNC(=N)N)NC(=O)CNC(=O)CNC(=O)[C@H](Cc1ccccc1)NC(=O)[C@H](C)N)[C@@H](C)CC)C(=O)NCC(=O)N[C@@H](C)C(N)=O [AP303, A-F-G-G-R-I-[D-D]-R-I-G-A-NH,] (H-AFGGRI[dD]RIGA-NH2) | inactive | –
13 | CC[C@H](C)[C@H](NC(=O)[C@H](CCCNC(=N)N)NC(=O)[C@H](CC(=O)O)NC(=O)[C@@H](NC(=O)[C@H](CCCNC(=N)N)NC(=O)CNC(=O)CNC(=O)COc1ccc2ccccc2c1)[C@@H](C)CC)C(N)=O [AP319, [2-Napthoxyacetyl]-G-G-R-I-D-R-I-NH2] ({Acetyl(2-naphthyloxy)}-GGRIDRI-NH2) | high binding affinity | urine flow rate (urine volume) ([3]; infused at 10 µg/min via femoral vein): significantly increased
14 | GGRIDRIGAA-NH2 [AP105, G-G-R-I-D-R-I-G-A-A-NH2] | inactive | –
